Patent US20060069132A1, “Azolecarboxamide herbicides” (priority 2004, published 2006)

What was measured:
[1] = tested on: goosegrass; assay: Test E pre-/postemergence herbicide test; format: in vivo, Eleusine indica
Summary of the method: (§1)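 In this greenhouse assay, compounds in a solvent vehicle containing surfactant were applied pre- and postemergence, the latter to plants 2 to 18 cm high. Control was judged by eye after 12 to 14 days on a 0 to 100 scale.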

[2] = tested on: johnsongrass; assay: Test E pre-/postemergence herbicide test; format: in vivo, Sorghum halepense
Summary of the method: as §1

[3] = tested on: pitted morningglory; assay: Test E pre-/postemergence herbicide test; format: in vivo, Ipomoea lacunosa
Summary of the method: as §1

[4] = tested on: purple nutsedge; assay: Test E pre-/postemergence herbicide test; format: in vivo, Cyperus rotundus
Summary of the method: as §1

[5] = tested on: common chickweed; assay: Test E pre-/postemergence herbicide test; format: in vivo, Stellaria media
Summary of the method: as §1

[6] = tested on: tropical spiderwort; assay: Test E pre-/postemergence herbicide test; format: in vivo, Commelina benghalensis
Summary of the method: as §1

[7] = tested on: downy bromegrass; assay: Test E pre-/postemergence herbicide test; format: in vivo, Bromus tectorum
Summary of the method: as §1

[8] = tested on: common mallow; assay: Test E pre-/postemergence herbicide test; format: in vivo, Malva sylvestris
Summary of the method: as §1

[9] = tested on: Russian thistle; assay: Test E pre-/postemergence herbicide test; format: in vivo, Salsola kali; settings: Preemergence
Summary of the method: as §1

[10] = tested on: winter barley; assay: Test C postemergence herbicide test; format: in vivo, Hordeum vulgare
Summary of the method: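 After a postemergence application at 1 to 4 leaves (plants 2–18 cm high), or at 2 leaves for barnyardgrass in flooded paddy, plants stayed in the greenhouse for 12 to 14 days. Damage was then judged visually relative to control plants, with 100 indicating complete control.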

[11] = tested on: blackgrass; assay: Test C postemergence herbicide test; format: in vivo, Alopecurus myosuroides
Summary of the method: (§2)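 Visual rating, 0 (no effect) to 100 (complete control), vs. controls at 12–14 d in greenhouse. Postemergence: 1–4-leaf plants, 2–18 cm. Paddy: flooded, barnyardgrass at 2-leaf stage.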

[12] = tested on: canarygrass; assay: Test C postemergence herbicide test; format: in vivo, Phalaris minor
Summary of the method: as §2

[13] = tested on: wheat; assay: Test C postemergence herbicide test; format: in vivo, Triticum aestivum
Summary of the method: as §2

[14] = tested on: wild oat; assay: Test C postemergence herbicide test; format: in vivo, Avenafatua
Summary of the method: as §2

[15] = Postemergence, 500 g ai/ha, scale 0 to 100
[16] = Postemergence, 250 g ai/ha, scale 0 to 100
[17] = Preemergence, 62 g ai/ha, scale 0 to 100
[18] = Preemergence, 125 g ai/ha, scale 0 to 100
[19] = Preemergence, 250 g ai/ha, scale 0 (no effect) to 100 (complete control)
[20] = Preemergence, 500 g ai/ha, scale 0 (no effect) to 100 (complete control)
[21] = postemergence, 125 g ai/ha, scale 0 to 100
[22] = postemergence, 62 g ai/ha, scale 0 to 100
[23] = 500 g ai/ha, scale 0 (no effect) to 100 (complete control)
[24] = Postemergence, 250 g ai/ha, scale 0 to 100, 0 no effect, 100 complete control
[25] = Postemergence, 500 g ai/ha, scale 0 to 100, 0 no effect, 100 complete control

CCn1nc(C(C)(C)C)cc1C(=O)Nc1cccc(C(N)=O)n1 [Compound 162, 6-[[[3-(1,1-dimethylethyl)-1-ethyl-1H-pyrazol-5-yl]carbonyl]amino]-2-pyridinecarboxamide]
Plant response rating, Goosegrass [1, 15]: 98
Plant response rating, Goosegrass [1, 16]: 95
Plant response rating, Goosegrass [1, 17]: 60
Plant response rating, Goosegrass [1, 18]: 90
Plant response rating, Goosegrass [1, 19]: 95
Plant response rating, Goosegrass [1, 20]: 95
Plant response rating, Goosegrass [1, 21]: 80
Plant response rating, Goosegrass [1, 22]: 50
Plant response rating, Johnsongrass [2, 15]: 100
Plant response rating, Johnsongrass [2, 16]: 100
Plant response rating, Johnsongrass [2, 17]: 60
Plant response rating, Johnsongrass [2, 18]: 100
Plant response rating, Johnsongrass [2, 19]: 100
Plant response rating, Johnsongrass [2, 20]: 100
Plant response rating, Johnsongrass [2, 21]: 80
Plant response rating, Johnsongrass [2, 22]: 65
Plant response rating, Morningglory [3, 15]: 90
Plant response rating, Morningglory [3, 16]: 80
Plant response rating, Morningglory [3, 17]: 30
Plant response rating, Morningglory [3, 18]: 60
Plant response rating, Morningglory [3, 19]: 85
Plant response rating, Morningglory [3, 20]: 100
Plant response rating, Morningglory [3, 21]: 70
Plant response rating, Morningglory [3, 22]: 30
Plant response rating, Nutsedge, Purple [4, 16]: 75
Plant response rating, Nutsedge, Purple [4, 17]: 0
Plant response rating, Chickweed [5, 16]: 100
Plant response rating, Chickweed [5, 18]: 95
Plant response rating, Chickweed [5, 19]: 95
Plant response rating, Chickweed [5, 20]: 95
Plant response rating, Chickweed [5, 21]: 100
Plant response rating, Chickweed [5, 22]: 80
Plant response rating, Spiderwort [6, 15]: 65
Plant response rating, Spiderwort [6, 16]: 60
Plant response rating, Spiderwort [6, 17]: 20
Plant response rating, Spiderwort [6, 18]: 40
Plant response rating, Spiderwort [6, 19]: 75
Plant response rating, Spiderwort [6, 20]: 75
Plant response rating, Spiderwort [6, 21]: 10
Plant response rating, Spiderwort [6, 22]: 0
Plant response rating, Bromegrass, Downy [7, 15]: 100
Plant response rating, Bromegrass, Downy [7, 16]: 98
Plant response rating, Bromegrass, Downy [7, 17]: 40
Plant response rating, Bromegrass, Downy [7, 18]: 80
Plant response rating, Bromegrass, Downy [7, 19]: 90
Plant response rating, Bromegrass, Downy [7, 20]: 100
Plant response rating, Bromegrass, Downy [7, 21]: 95
Plant response rating, Bromegrass, Downy [7, 22]: 50
Plant response rating, Mallow [8, 15]: 100
Plant response rating, Mallow [8, 16]: 80
Plant response rating, Mallow [8, 17]: 50
Plant response rating, Mallow [8, 18]: 70
Plant response rating, Mallow [8, 19]: 100
Plant response rating, Mallow [8, 20]: 100
Plant response rating, Mallow [8, 21]: 60
Plant response rating, Mallow [8, 22]: 40
Plant response rating, Thistle ([9]; 62 g ai/ha, scale 0 to 100): 50
Plant response rating, Thistle ([9]; 125 g ai/ha, scale 0 to 100): 50
Plant response rating, Thistle [9, 23]: 70

CCNC(=O)c1cccc(NC(=O)c2nn(C(C)(C)C)nc2C)c1 [Compound 392]
Barley, Winter plant response rating [10, 15]: 35
Plant response rating, Barley, Winter ([10]; Postemergence, 125 g ai/ha, scale 0 to 100, 0 no effect, 100 complete control): 35
Plant response rating, Barley, Winter [10, 24]: 35
Plant response rating, Barley, Winter ([10]; postemergence, 62 g ai/ha, scale 0 to 100 (0 no effect, 100 complete control)): 35
Blackgrass plant response rating [11, 15]: 65
Plant response rating, Blackgrass [11, 24]: 45
Plant response rating, Blackgrass [11, 21]: 45
Plant response rating, Blackgrass [11, 22]: 35
Plant response rating, Canarygrass [12, 24]: 50
Plant response rating, Canarygrass [12, 25]: 65
Plant response rating, Canarygrass [12, 21]: 45
Plant response rating, Canarygrass [12, 22]: 40
Plant response rating, Wheat [13, 25]: 35
Plant response rating, Wheat [13, 21]: 30
Plant response rating, Wheat [13, 22]: 20
Plant response rating, Oat, Wild [14, 25]: 60
Plant response rating, Oat, Wild [14, 21]: 40
Plant response rating, Oat, Wild [14, 22]: 30
Plant response rating, Goosegrass [1, 17]: 20
Plant response rating, Goosegrass [1, 18]: 70
Plant response rating, Goosegrass [1, 19]: 85
Plant response rating, Goosegrass [1, 20]: 95
Plant response rating, Johnsongrass [2, 17]: 10
Plant response rating, Johnsongrass [2, 18]: 30
Plant response rating, Johnsongrass [2, 19]: 90
Plant response rating, Johnsongrass [2, 20]: 95
Plant response rating, Morningglory [3, 17]: 10
Plant response rating, Morningglory [3, 18]: 40
Plant response rating, Morningglory [3, 19]: 40
Plant response rating, Morningglory [3, 20]: 75
Plant response rating, Chickweed [5, 17]: 60
Plant response rating, Chickweed [5, 18]: 95
Plant response rating, Chickweed [5, 19]: 95
Plant response rating, Chickweed [5, 20]: 95
Plant response rating, Spiderwort [6, 18]: 50
Plant response rating, Spiderwort [6, 19]: 95
Plant response rating, Spiderwort [6, 20]: 100
Plant response rating, Bromegrass, Downy [7, 17]: 10
Plant response rating, Bromegrass, Downy [7, 18]: 20
Plant response rating, Bromegrass, Downy [7, 19]: 30
Plant response rating, Bromegrass, Downy [7, 20]: 30
Plant response rating, Mallow [8, 17]: 10
Plant response rating, Mallow [8, 18]: 80
Plant response rating, Mallow [8, 19]: 95
Plant response rating, Mallow [8, 20]: 95
Plant response rating, Thistle ([9]; 125 g ai/ha, scale 0 to 100): 10
Plant response rating, Thistle [9, 23]: 100

CCc1nn(C(C)(C)C)nc1C(=O)Nc1cccc(C(=S)N(C)C)c1 [Compound 395]
Plant response rating, Goosegrass [1, 17]: 80
Plant response rating, Goosegrass [1, 18]: 80
Plant response rating, Goosegrass [1, 19]: 90
Plant response rating, Goosegrass [1, 20]: 95
Plant response rating, Johnsongrass [2, 17]: 30
Plant response rating, Johnsongrass [2, 18]: 80
Plant response rating, Johnsongrass [2, 19]: 90
Plant response rating, Johnsongrass [2, 20]: 90
Plant response rating, Morningglory [3, 17]: 20
Plant response rating, Morningglory [3, 18]: 40
Plant response rating, Morningglory [3, 19]: 75
Plant response rating, Morningglory [3, 20]: 75
Plant response rating, Nutsedge, Purple [4, 18]: 50
Plant response rating, Nutsedge, Purple [4, 19]: 70
Plant response rating, Nutsedge, Purple [4, 20]: 80
Plant response rating, Chickweed [5, 18]: 90
Plant response rating, Chickweed [5, 19]: 100
Plant response rating, Chickweed [5, 20]: 100
Plant response rating, Spiderwort [6, 19]: 60
Plant response rating, Spiderwort [6, 20]: 90
Plant response rating, Bromegrass, Downy [7, 17]: 40
Plant response rating, Bromegrass, Downy [7, 18]: 40
Plant response rating, Bromegrass, Downy [7, 19]: 95
Plant response rating, Bromegrass, Downy [7, 20]: 95
Plant response rating, Mallow [8, 17]: 20
Plant response rating, Mallow [8, 18]: 50
Plant response rating, Mallow [8, 20]: 60
Plant response rating, Thistle [9, 23]: 60
